Laboratory results published in article PMC10470313, “Developing a peptide to disrupt cohesin head domain interactions” (iScience, 2023).
Where no end group is shown, it is not given here.

Legend:
[1] = system: Smc3-GFP (cohesin holocomplex) in yeast protein extract; experiment: Microscale thermophoresis (MST) binding in yeast cell extract; conditions: 10 μM CIP3-TAT (Fig S3; method b75: 5 μM), extract of yAM-945 strain, MST binding mode, no binding constants
Description: We validated the in vitro binding of CIP3 to Smc3 by exploring the formation of the complex in a yeast cell extract in which Smc3 was fused to GFP. Protein extract from the yAM-945 strain containing Smc3-GFP was supplemented with 10 μM CIP3-TAT and analyzed by microscale thermophoresis (MST) in binding mode. In this assay, the migration of a fluorescent protein in a microscale temperature gradient is monitored. Changes in the physical-chemical properties of the protein, induced by interaction with another protein or a small molecule, will change the migration properties of the protein. While biochemical constants of the binding cannot be determined under these conditions, as the concentration of Smc3-GFP in the extract is undetermined.
Yeast strain yAM-945 cells containing Smc3-GFP were grown in SD-URA galactose to mid-log phase. Cells were collected by centrifugation and washed with water. The cell pellet was resuspended in 350 μl of MST Buffer (NanoTemper) supplemented with 0.05% Tween-20 (Sigma). Glass beads were added, and cells were lyzed by 4 cycles of 1 minute in a bullet blender (next advance). The protein extract was clarified by centrifugation at 1000 g for 5 minutes. […] The formation of the CIP3-TAT and cohesin complex was analyzed by Monolith NT.115 (NanoTemper) in the binding mode that detects the formation of complexes without calculating the binding constants.

Smc3 head domain = target: T1, Smc3 head domain (Saccharomyces cerevisiae, UniProt P47037); experiment: Field-effect biosensing (FEB Agile R100) binding of peptide to Smc3 head domain; conditions: 500 nM peptide immobilized on graphene chip, Hill fit or kon/koff
T1 construct: C′ terminal (amino acids 1001-1230); linker […]; made in house; host or cells: E. coli BL21
T1 sequence (P47037 with tags, fused parts or gaps): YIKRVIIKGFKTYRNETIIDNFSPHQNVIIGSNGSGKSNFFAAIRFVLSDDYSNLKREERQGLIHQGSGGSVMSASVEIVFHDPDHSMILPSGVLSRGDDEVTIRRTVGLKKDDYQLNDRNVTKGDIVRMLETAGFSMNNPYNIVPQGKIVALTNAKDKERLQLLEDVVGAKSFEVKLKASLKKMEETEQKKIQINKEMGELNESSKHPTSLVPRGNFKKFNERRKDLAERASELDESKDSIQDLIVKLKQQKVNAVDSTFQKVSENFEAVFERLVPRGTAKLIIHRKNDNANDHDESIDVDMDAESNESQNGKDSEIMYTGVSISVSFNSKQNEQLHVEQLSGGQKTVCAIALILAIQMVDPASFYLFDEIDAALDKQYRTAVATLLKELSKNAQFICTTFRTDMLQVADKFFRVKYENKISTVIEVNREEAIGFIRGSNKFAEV
Description: Accordingly, we explored the ability of CIP3 to bind Smc3 in-vitro. We synthesized CIP3-TAT and purified it (Figures S2A and S2B. Purification of CIP3-TAT and Smc3 head domain, related to Figure 3), and the kinetic binding of the peptide to a purified Smc3 head domain (Figures S2C and S2D. Purification of CIP3-TAT and Smc3 head domain, related to Figure 3) was explored by FEB Agile R100 (Figures 3C and 3D). The binding kinetics is determined by measuring the current of the chip that is changed when the analyzed molecules form a complex. The peptide was immobilized on the sensor chip, and the analyte, purified Smc3 head domain, was applied in solution to the chip. The changes in the current were monitored as increasing concentrations of analyte were applied to the chip. […]
The binding kinetics of cohesin-inhibiting peptide 3 (CIP3) to Smc3 were measured by field-effect biosensing (FEB) Agile R100 label-free binding assay (Cardea), following their standard protocol, and as we have done previously,.[65]^,[66]^,[67] […] Next, PBS was aspirated, and the changes in the baseline current were monitored in real-time, using 20 μM, 50 μM, 100 μM, 200 μM, 500 μΜ, 1000 μM, 1500 μM, 2000 μM, and 4000 μM of purified Smc3 head domain. Kd values were calculated using DataLINE 2.0 software by applying either a Hill equation fit or using kon and koff values at a single concentration. […]

For KRFKDMEYLSGGEKTGGYGRKKRRQRRR [CIP3-TAT], the “complex formation with Smc3-GFP/cohesin” value [1] was “supported the formation of the Smc3/CIP3 complex”, the Kd (Smc3 head domain; with ATP (10 mM), Smc3 incubated with ATP before measuring, Smc3 head domain 20-4000 μM (0.02–4 mM)) was 0.5442 ± 6e-05 µM and the Kd (Smc3 head domain; without ATP, Smc3 head domain 20-4000 μM (0.02–4 mM) in PBS) was 0.05386 ± 3e-05 µM.
